According to patent US9682940B2, “Indazole derivatives useful as CB-1 inverse agonists” (Janssen Pharmaceutica NV, priority 2015, dated 2017):

Legend:
[1] = target: Human CB2R (Cannabanoid receptor 2) (Homo sapiens (Human), UniProt P34972); assay: CB-2 in vitro cAMP (HTRF) assay in HEK-293 cells; assay type: cell-based; conditions: HEK-293 cells stably transfected with human CB2R, 250 nM Forskolin, mean where tested more than once, read-out: CB-2 (HEK_cAMP) EC50
Excerpt: (§1) CB1 and CB2 receptors are Gi-coupled GPCR. Activation of CB1 and CB2 receptors results in a decrease in cAMP production. An inverse agonist of the CB1 or CB2 receptor results in the opposite effect, an increase of cAMP production. The principle of this assay is based on HTRF® technology (Homogeneous Time-Resolved Fluorescence). The method is a competitive immunoassay between native cAMP produced by cells and the cAMP labeled with the fluorophore d2. The tracer binding is quantified by a Mab anti-cAMP labeled with Eu3+TBP-NHS Cryptate (supplied as part of the assay kit). The specific signal (i.e. energy transfer) is inversely proportional to the concentration of cAMP in the standard or sample.
(§2) Human CB1R (Cannabanoid receptor 1) was stably transfected in HEK-293 cells (DiscoveRx, cat: 93-0200C1). Human CB2R (Cannabanoid receptor 2) was stably transfected in HEK-293 cells (DiscoveRx, cat: 93-0201C1). Cell cultures were maintained in media: DMEM (Invitrogen Cat#12430-054) supplemented with 10% HI FBS (Invitrogen Cat#16140-071), 1% L-glutamine (Invitrogen Cat#25030-081), 0.2 mg/ml Hygromycin B (Invitrogen Cat#10687-010), 600 μg/mL G418 (Invitrogen Cat#10131-035), and 1× Penn/Strep (Invitrogen 15140-122). After cell expansion, aliquots were cryo-stored in media containing 5% DMSO (Pierce Cat#20684).
(§3) One day prior to experiments media was warmed to 37° C. and the cryo-stored cells were thawed in a 37° C. water bath. The cells were then added to media (10× volume) and the mixture was centrifugated at 1000 RPM for 5 min. The supernate was removed and the cells were re-suspended in media. A sample of the cell suspension was evaluated on a Cedex XS automated cell counter (Innovatis Systems) to determine viable cells/ml. Additional media was added to the cells to achieve a final cell density of 4E5 cells/mL. The cells were then plated into 384 well PDL white solid bottom plates (Greiner, Cat#781945) at 20 μL per well using a Multidrop (Thermo Scientific). Cells were removed from Row P (location of cAMP standards). Two columns of cells were plated into a clear bottom 384 well PDL coated plate (Greiner, Cat#781944) to view confluence the day of the assay. The cell plates were lidded and stored for 15 minutes in a hood, then transferred to an incubator (37° C., 5% CO2, 95% humidity) overnight.
(§4) DMSO was added to all wells of 384 well V bottom polystyrene plate (Greiner, Cat#781280) except to columns 1 and 13, rows O and P and wells M13-M23 and N13-N23. Test compounds (60 μL, 10 mM) were added to Column 1 and 13 (A1 through N1 and A13 through L13). Test compounds were serially diluted 1/3 by transferring and mixing 20 μl sample with 40 μL DMSO.
(§5) DMSO (40 μL) was added to wells of 384 well V bottom polystyrene plate: O2 through O11, M14 through M23, N14 through N23, and O14 through 023. AM630 (also known as [6-iodo-2-methyl-1-[2-(4-morpholinyl)ethyl]-1H-indol-3-yl](4-methoxyphenyl)-methanone, Cayman Chemical, Cat#10006974) (60 μL, 10 mM) was added to 01; and 1-(2,4-dichlorophenyl)-7-[(4-fluorophenyl)methylene]-4,5,6,7-tetrahydro-N-1-piperidinyl-1H-indazole-3-carboxamide (60 μL, 10 mM) was added to N13. The control was serially diluted 1/3 by transferring and mixing 20 μl sample with 40 μL DMSO. This process resulted 11 doses per control, 10 mM to […].
(§6) Cells plated the day prior to the assay in clear bottom plates were viewed on an inverse microscope to ensure confluency in the range of 60-75%. […]

[2] = target: Human CB1R (Cannabanoid receptor 1) (Homo sapiens (Human), UniProt P21554); assay: CB-1 in vitro cAMP (HTRF) assay in HEK-293 cells; assay type: cell-based; conditions: HEK-293 cells stably transfected with human CB1R, 250 nM Forskolin, mean where tested more than once, read-out: CB-1 (HEK_cAMP) EC50
Excerpt: as §1, §2, §3, §4, §5, §6

Sequence of Human CB2R (Cannabanoid receptor 2) (P34972 whole entry): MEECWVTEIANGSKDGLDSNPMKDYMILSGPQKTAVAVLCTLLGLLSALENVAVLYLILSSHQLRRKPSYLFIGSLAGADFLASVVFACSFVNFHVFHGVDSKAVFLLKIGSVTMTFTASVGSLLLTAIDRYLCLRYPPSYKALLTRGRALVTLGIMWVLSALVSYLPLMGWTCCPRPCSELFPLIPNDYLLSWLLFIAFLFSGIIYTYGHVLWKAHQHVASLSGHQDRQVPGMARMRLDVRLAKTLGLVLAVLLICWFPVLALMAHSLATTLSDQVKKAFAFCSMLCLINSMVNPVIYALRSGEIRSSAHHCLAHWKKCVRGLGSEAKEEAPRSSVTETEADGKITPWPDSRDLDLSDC
Sequence of Human CB1R (Cannabanoid receptor 1) (P21554 whole entry): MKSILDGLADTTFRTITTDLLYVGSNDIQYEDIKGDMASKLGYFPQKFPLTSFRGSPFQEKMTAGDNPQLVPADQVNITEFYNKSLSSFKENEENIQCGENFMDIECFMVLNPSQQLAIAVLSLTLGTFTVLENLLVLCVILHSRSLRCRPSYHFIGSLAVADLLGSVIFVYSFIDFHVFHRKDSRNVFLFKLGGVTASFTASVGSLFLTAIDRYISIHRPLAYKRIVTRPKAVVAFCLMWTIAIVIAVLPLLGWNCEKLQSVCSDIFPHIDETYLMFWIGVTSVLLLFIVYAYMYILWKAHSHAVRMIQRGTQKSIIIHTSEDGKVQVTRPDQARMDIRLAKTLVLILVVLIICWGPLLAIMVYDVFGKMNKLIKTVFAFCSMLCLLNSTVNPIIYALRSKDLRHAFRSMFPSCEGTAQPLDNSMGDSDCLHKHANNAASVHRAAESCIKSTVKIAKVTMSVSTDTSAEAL

Structure (SMILES)	EC50 [1] [nM]	EC50 [2] [nM]
O=S(=O)(N1CCC(c2nn(-c3ccc(C(F)(F)F)cc3)c3ccc(C(c4ccc(Cl)cc4)c4ccc(Cl)cc4)cc23)CC1)C(F)(F)F [Compound 46]	> 10000	40
O=C(c1nnn[nH]1)N1CCC(c2n[nH]c3ccc(C(c4ccc(Cl)cc4)c4ccc(Cl)cc4)cc23)CC1 [Compound 143]	> 10000	1010
O=C(O)c1ccc(S(=O)(=O)N2CCC(Nc3n[nH]c4ccc(C(c5ccc(Cl)cc5)c5ccc(Cl)cc5)cc34)CC2)cc1 [Compound 129]	> 10000	203
O=C(O)c1ccccc1C(=O)N1CCC(c2nn(C3CC3)c3ccc(C(c4ccc(Cl)cc4)c4ccc(Cl)cc4)cc23)CC1 [Compound 103]	> 10000	6010
NC(=O)c1ccc(N2CCC(c3nn(C4CC4)c4ccc(C(c5ccc(Cl)cc5)c5ccc(Cl)cc5)cc34)CC2)cc1 [Compound 189]	> 10000	23
NC(=O)c1ccc(CN2CCC(c3n[nH]c4ccc(C(c5ccc(Cl)cc5)c5ccc(Cl)cc5)cc34)CC2)cc1 [Compound 222]	> 10000	163
NC(=O)c1ccc(S(=O)(=O)N2CCC(c3nn(C4CC4)c4ccc(C(c5ccc(Cl)cc5)c5ccc(Cl)cc5)cc34)CC2)cc1 [Compound 95]	6500	63
O=C(O)c1cccc(CN2CCC(c3nn(C4CC4)c4ccc(C(c5ccccc5)c5ccc(Cl)cc5)cc34)CC2)c1 (centres unmarked) [Compound 245]	> 10000	20
O=C(OCc1ccccc1)N1CCC(c2n[nH]c3ccc(C(c4ccc(Cl)cc4)c4ccc(Cl)cc4)cc23)CC1 [Compound 265]	> 10000	208
NC(=O)c1ccccc1C(=O)N1CCC(c2c3cc(C(c4ccc(Cl)cc4)c4ccc(Cl)cc4)ccc3nn2C2CC2)CC1 [Compound 124]	> 10000	236
NC(=O)CS(=O)(=O)N1CCC(c2nn(C3CC3)c3ccc(C(c4ccc(Cl)cc4)c4ccc(Cl)cc4)cc23)CC1 [Compound 115]	> 10000	1010
NC(=O)C(=O)N1CCC(c2c3cc(C(c4ccc(Cl)cc4)c4ccc(Cl)cc4)ccc3nn2C2CC2)CC1 [Compound 138]	> 10000	587
CS(=O)(=O)N1CCC(Nc2n[nH]c3ccc(C(c4ccc(Cl)cc4)c4ccc(Cl)cc4)cc23)CC1 [Compound 125]	> 10000	135
O=C(O)c1ccc(S(=O)(=O)N2CCC(c3nn(C4CC4)c4ccc(C(c5ccc(Cl)cc5)c5ccc(Cl)cc5)cc34)CC2)cc1 [Compound 89]	> 10000	339
NC(=O)c1cccc(N2CCC(c3n[nH]c4ccc(C(c5ccc(Cl)cc5)c5ccc(Cl)cc5)cc34)CC2)c1 [Compound 218]	> 10000	265
CCNC(=O)N1CCC(c2n[nH]c3ccc(C(c4ccc(Cl)cc4)c4ccc(Cl)cc4)cc23)CC1 [Compound 264]	4270	199
O=S(=O)(N1CCC(c2c3cc(C(c4ccc(Cl)cc4)c4ccc(Cl)cc4)ccc3nn2C2CC2)CC1)C(F)(F)F [Compound 136, 5-(bis(4-chlorophenyl)methyl)-2-cyclopropyl-3-(1-(trifluoromethylsulfonyl)piperidin-4-yl)-2H-indazole]	> 10000	11

Structure (SMILES)	EC50 [1] [nM]	EC50 [2] [nM]
O=C(O)c1ccc(S(=O)(=O)N2CCC(c3n[nH]c4ccc(C(c5ccc(Cl)cc5)c5ccc(Cl)cc5)cc34)C2)cc1 (centres unmarked) [Compound 269]	> 10000	590
NC(=O)c1cccc(C(=O)N2CCC(c3c4cc(C(c5ccc(Cl)cc5)c5ccc(Cl)cc5)ccc4nn3C3CC3)CC2)c1 [Compound 112]	> 10000	62
O=C(O)Cc1ccc(N2CCC(c3nn(C4CC4)c4ccc(C(c5ccc(Cl)cc5)c5ccc(Cl)cc5)cc34)CC2)cc1 [Compound 181]	> 10000	7800
O=C(CCO)N1CCC(c2c3cc(C(c4ccc(Cl)cc4)c4ccc(Cl)cc4)ccc3nn2C2CC2)CC1 [Compound 132]	> 10000	166
O=C(O)c1ccccc1S(=O)(=O)N1CCC(c2nn(C3CC3)c3ccc(C(c4ccc(Cl)cc4)c4ccc(Cl)cc4)cc23)CC1 [Compound 87]	> 10000	6740
O=C(O)c1ccc(S(=O)(=O)N2CCC(c3c4cc(C(c5ccc(Cl)cc5)c5ccc(Cl)cc5)ccc4nn3C3CC3)CC2)cn1 [Compound 160, 5-(4-(5-(bis(4-chlorophenyl)methyl)-2-cyclopropyl-2H-indazol-3-yl)piperidin-1-ylsulfonyl)picolinic acid]	4400	5
NC(=O)COc1ccc(N2CCC(c3c4cc(C(c5ccc(Cl)cc5)c5ccc(Cl)cc5)ccc4nn3C3CC3)CC2)cc1 [Compound 197, 2-(4-(4-(5-(bis(4-chlorophenyl)methyl)-2-cyclopropyl-2H-indazol-3-yl)piperidin-1-yl)phenoxy)acetamide]	7100	32
O=C(O)c1cccc(CN2CCC(c3c4cc(C(c5ccc(Cl)cc5)c5ccc(Cl)cc5)ccc4nn3C3CC3)CC2)c1 [Compound 257, 3-((4-(5-(bis(4-chlorophenyl)methyl)-2-cyclopropyl-2H-indazol-3-yl)piperidin-1-yl)methyl)benzoic acid]	> 5000	13
COc1ccc(S(=O)(=O)N2CCC(c3c4cc(C(c5ccc(Cl)cc5)c5ccc(Cl)cc5)ccc4nn3C3CC3)CC2)cc1C(N)=O [Compound 158, 5-(4-(5-(bis(4-chlorophenyl)methyl)-2-cyclopropyl-2H-indazol-3-yl)piperidin-1-ylsulfonyl)-2-methoxybenzamide]	> 10000	3
NC(=O)c1ccc(C(=O)N2CCC(c3c4cc(C(c5ccc(Cl)cc5)c5ccc(Cl)cc5)ccc4nn3C3CC3)CC2)cc1 [Compound 114]	9900	283
O=S(=O)(C1CC1)N1CCC(c2n[nH]c3ccc(C(c4ccc(Cl)cc4)c4ccc(Cl)cc4)cc23)CC1 [Compound 54]	> 10000	27
CC(O)Cn1nc(C2CCN(S(=O)(=O)C(F)(F)F)CC2)c2cc(C(c3ccc(Cl)cc3)c3ccc(Cl)cc3)ccc21 (centres unmarked) [Compound 202]	> 10000	169
O=C(O)c1cccc(S(=O)(=O)N2CCC(c3nn(CCO)c4ccc(C(c5ccc(Cl)cc5)c5ccc(Cl)cc5)cc34)CC2)c1 [Compound 68]	> 10000	85
NC(=O)Cc1ccc(N2CCC(c3nn(C4CC4)c4ccc(C(c5ccc(Cl)cc5)c5ccc(Cl)cc5)cc34)CC2)cc1 [Compound 182]	> 10000	271
NC(=O)c1cccc(N2CCC(c3c4cc(C(c5ccc(Cl)cc5)c5ccc(Cl)cc5)ccc4nn3C3CC3)CC2)c1 [Compound 184, 3-(4-(5-(bis(4-chlorophenyl)methyl)-2-cyclopropyl-2H-indazol-3-yl)piperidin-1-yl)benzamide]	> 10000	26
COC(=O)c1ccccc1S(=O)(=O)N1CCC(c2n[nH]c3ccc(C(c4ccc(Cl)cc4)c4ccc(Cl)cc4)cc23)CC1 [Compound 31]	2340	128
COc1ccc(C(c2ccc(OC)cc2)c2ccc3[nH]nc(C4CCN(S(=O)(=O)C(F)(F)F)CC4)c3c2)cc1 [Compound 67]	5200	2
